According to patent US3962446A, “Analgesic compositions containing 2-cyanoalkylbenzomorphan derivatives and salts thereof” (priority 1971, dated 1976):
Where two headings read alike, the source gives them in different places.

What was measured:
[1] = Abstinence syndrome (bodyweight decrease) on the day after drug withdrawal following 4 weeks of subcutaneous dosing; type: in vivo, male rats of Wistar strain; design: key: +++: severe decrease (about 5% decrease); ++: moderate decrease; +: mild decrease; -: no decrease; conditions: male Wistar rats, 20 mg/kg/day for 4 weeks, subcutaneous twice a day
Procedure: Compound for 4 weeks) syndrome
Note: Groups of male rats of Wistar strain (bodyweight, 150 g), each grou
consisting of 20 male rats, were subcutaneously given the test compound
twice a day for 4 consecutive weeks. On the next day after drug
withdrawal, the bodyweight was measured. The symbols have the following
meanings: +++, severe decrease (about 5% decrease); ++, moderate decrease
+, mild decrease; -, no decrease. The marked decrease is taken as an […]

[2] = Subcutaneous writhing test (antagonism of the syndrome produced by intraperitoneal acetic acid); type: in vivo, mice; conditions: Mus musculus, sc
Procedure: […]. Note: The test was based on the specific antagonism of the test compound to the typical syndrome produced by intraperitoneal injection of 0.6% aqueous acetic acid. The syndrome was characterized by intermittent contractions of the abdomen, twisting and turning of the trunk and extension of the hind legs. A group of 5 mice was used for each dose level. The test compound was administered subcutaneously 20 minutes before the injection of acetic acid. […] The ED50 value was calculated according to the Litchfeld-Wilcoxon's method.

[3] = Long term animal tests for addiction / physical dependency (daily oral or subcutaneous administration for over one month); type: in vivo; conditions: rats, orally or subcutaneously every day for over one month
From the text: On account of this addiction liability, these analgesics are severely restricted in a therapeutic use.

[4] = cited from earlier work
[5] = mice, subcutaneous, 20 minutes before 0.6% acetic acid i.p., Litchfeld-Wilcoxon's method, read-out: ED50

Compound	Abstinence syndrome [1]	ED50 [2, 5]	addiction / physical dependency [3]	addiction liability ([4]; prior art compounds)	analgesic activity ([4]; prior art, U.S. Pat. No. 3,138,603)	ED50 [2]
CCC1C2Cc3ccc(O)cc3C1(CC)CCN2CCCC#N (centres unmarked) [2'-hydroxy-2-(γ-cyanopropyl)-5,9-diethyl-6,7-benzomorphan]	-	0.3 mg/kg				
CCC12CCN(CCCC#N)C(Cc3ccc(O)cc31)C2C (centres unmarked) [2'-hydroxy-2-(γ-cyanopropyl)-5-ethyl-9-methyl-6,7-benzomorphan]	-	0.19 mg/kg	do not show addiction in long term animal tests			
CC12CCN(CCC#N)C(Cc3ccccc31)C2 (stereo not drawn) [2-(β-Cyanoethyl)-5-methyl-6,7-benzomorphan]	-					
CC1C2Cc3ccc(O)cc3C1(C)CCN2CCCC#N (centres unmarked) [2'-Hydroxy-2-(γ-cyanopropyl)-5,9-dimethyl-6,7-benzomorphan]	-	3 mg/kg				
CC1C2Cc3ccc(O)cc3C1(C)CCN2CCC#N (stereo not drawn) [2'-Hydroxy-2-(β-cyanoethyl)-5,9-dimethyl-6,7-benzomorphan]	-	0.9 mg/kg	do not show addiction in long term animal tests			
CC12CCN(CCC#N)C(Cc3ccc(O)cc31)C2 (stereo not drawn) [2'-Hydroxy-2-(β-cyanoethyl)-5-methyl-6,7-benzomorphan]	-	2.9 mg/kg	do not show addiction in long term animal tests			
CC(C)=CCN1CCC2(C)c3cc(O)ccc3CC1C2C (centres unmarked) [Pentazocine, 2'-hydroxy-2-(3"-methyl-2"-butenyl)-5,9-dimethyl-6,7-benzomorphan, reference compound]		17.5 mg/kg				
CC(=O)Oc1ccc2c(c1)C1(C)CCN(CCC#N)C(C2)C1C (stereo not drawn) [2'-Acetoxy-2-(β-cyanoethyl)-5,9-dimethyl-6,7-benzomorphan]	-	0.5 mg/kg	do not show addiction in long term animal tests			
CC1C2Cc3ccc(O)cc3C1(C)CCN2C (centres unmarked) [2'-Hydroxy-2,5,9-trimethyl-6,7-benzomorphan, reference compound]	++	3.5 mg/kg		show an addiction liability	potent analgesic activity	
CN1CC[C@]23c4c5ccc(O)c4O[C@H]2[C@@H](O)C=C[C@H]3[C@H]1C5 [Morphine, reference compound]						1.4 mg/kg
COc1ccc2c3c1O[C@H]1[C@@H](O)C=C[C@H]4[C@@H](C2)N(C)CC[C@@]341 [Methylmorphine, reference compound]		14 mg/kg				
CCC1C2Cc3ccc(O)cc3C1(C)CCN2CCCC#N (centres unmarked) [2'-Hydroxy-2-(γ-cyanopropyl)-5-methyl-9-ethyl-6,7-benzomorphan]	-	1.5 mg/kg				
